Experimental data: US11583506B1, “Cannabinoids for use in suppressing cancer stem cells” (VIVACELL BIOTECHNOLOGY ESPAÑA S.L.U., priority 2020, dated 2023)
“Also recorded” adds a separate entry of the source.

Experiments:
Type in all cases: cell-based, human
Notch1 [1] = experiment: Notch1 degradation with proteasome inhibitor MG132 in HCT 116 cells; conditions: 24 hours, 10 μM CBD and/or 10 μM MG-132
Experimental: (§1) To gain insight into the CBD effect on Notch1 pathway, a deep study using the human colorectal carcinoma HCT 116 cell line (ATCC No. CCL-247) was performed to analyse Notch1 levels. […] Moreover, the Hes5 protein level, a Notch signalling-related protein, was also analysed by western blot following the methodology explained above and using a specific primary antibody (Human anti-Hes5. 1:1000 dilution. Ref. #ab25374, Abcam. Cambridge, UK). […] To further clarify the CBD mechanism of causing a reduced Notch1 expression, HCT 116 cells were incubated with the proteasome inhibitor MG132 and/or with CBD.

HCT 116 cells = experiment: tumorospheres (colonospheres) formation assay; conditions: 7 days of treatment, 1, 2.5, 5 and 10 μM, vs vehicle (DMSO)
Text: Cancer stem cells (CSC) cultured 3-dimentionally in a serum-free medium supplemented with growth factors are able to form floating spheroids known as tumorospheres (Reynolds B A et al. Dev Biol. 1996; 175(1):1-13. doi:10.1006/dbio.1996.0090; Singh S K et al. Cancer Res. 2003; 63(18):5821-8. PMID: 14522905). These cancer cells-derived spheroids have been proven to display CSCs characteristics and recapitulate in vitro the in vivo conditions of cancer growth becoming an ideal model to evaluate anti-CSC drugs (Dieter S M et al. Cell Stem Cell. 2011; 9(4):357-65. doi: 10.1016/j.stem.2011.08.010. PMID: 21982235; Lee C H et al. Oncotarget. 2016; 7(2):1215-26. doi: 10.18632/oncotarget.6261. PMID: 26527320).
To study the CBD effect on colonospheres proliferation, a tumorospheres formation assay was performed. Briefly, human colorectal carcinoma HCT 116 cells (ATCC No. CCL-247) were trypsinized, quantified and seeded at clonal density (5 cell/μL) in ultra-low attachment surface 96-well plates (Corning-Costar. Coming, N.Y., USA) with serum free Dulbecco's Modified Eagle's Medium (DMEM)/Nutrient Mixture F-12 Ham (Sigma-Aldrich. St. Louis, Mo., USA) supplemented with 1X B-27 (Invitrogen, Carlsbad, Calif., USA), 10 ng/mL basic fibroblast growth factor (bFGF; PeproTech. London, UK), 20 ng/mL epidermal growth factor (EGF; Santa Cruz Biotechnology, Heidelberg, Germany), 1% (v/v) methylcellulose (R&D Systems. Minneapolis, Minn., USA) to prevent cell aggregation and the corresponding dose of vehicle (DMSO) or CBD concentration (1, 2.5, 5 and 10 μM). Every 2-3 days freshly supplements were added and the number and size of colonospheres were analysed by optical microscopy 1 week after seeding.

Notch1 [2] = experiment: Notch1 levels in HCT 116 cells by western blot; conditions: for Notch1 levels, panel of natural cannabinoids / Notch1 expression levels, concentration dependence: HCT 116 cells; for Notch1 levels, panel of natural cannabinoids: 24 hours, 10 μM; for Notch1 expression levels, concentration dependence: 24 hours, 1, 2.5, 5 and 10 μM
Experimental: (§2) In cancer stem cells Notch1 signalling pathway is abnormally activated (Venkatesh V et al. Stem Cell Investig. 2018 Mar. 12; 5:5. doi: 10.21037/sci.2018.02.02. PMID: 29682512). For this reason, to further analyse the anti-proliferative CBD effect on colonospheres formation, Notch1 expression was investigated by western blot analysis. Briefly, after treatments, the colonospheres were washed with PBS1X and whole-cell proteins were extracted in 50 μL of lysis buffer (50 mM Tris-HCl pH 7.5, 150 mM NaCl, 10% glycerol and 1% NP-40) supplemented with 10 mM NaF, 1 mM Na3VO4, 10 μg/mL leupeptine, 1 μg/mL pepstatin and aprotinin, and 1 μL/mL phenylmethylsulfonyl fluoride saturated. Protein concentration of the whole-cell lysates was quantified by absorbance at 595 nm using Bradford reagent compared to a bovine serum albumin standard curve. Then, forty micrograms of protein were boiled at 95° C. in Laemmli buffer and electrophoresed in 10% SDS/PAGE gels. Separated proteins were transferred to polyvinylidene difluoride (PVDF) membranes (20V for 30 min) and blocked in TBSIX solution containing 0.1% Tween 20 and 5% non-fat dry milk for 1 hour at room temperature. Immunodetection of specific proteins was carried out by incubation with primary antibody against human Notch1 (1:1000 dilution. Ref. #ab52627, Abcam. Cambridge, UK) and β-actin (1:10.000 dilution. Ref. #A5316, Sigma-Aldrich. St. Louis, Mo., USA) overnight at 4° C. After washing membranes, horseradish peroxidase-conjugated secondary antibody was added and the protein bands on the membranes were detected with ECL reagent (BioRad. Hercules, Calif., USA) by chemiluminescence system (GE Healthcare Europe GmbH. Munich, Germany).
The densitometry analysis was performed using ImageJ software, and the quantified band intensities were normalized to Actin. […] Thus, it can be concluded that the reduction of Notch1 levels is critical to inhibit the colonospheres proliferation.
as §1
A panel of natural cannabinoids CBDA, CBDV, CBC, CBCA, CBCV, CBG, CBGA, CBGV, CBGVA, CBN, THC and THCA were evaluated in its capacity to reduce Notch1 levels in human colorectal carcinoma HCT 116 cell line. CBD was purchase from Endoca BV (Netherlands). CBDA, CBDV, CBCA, CBG, CBGA, THC and […] were purchased from Phytoplant Research S.L (Cordoba, Spain). CBC, CBCV, CBGV, CBGVA and CBN were provided by the laboratory of the Professor Giovanni Appendino from the University of Piemonte Orientale (Novara, Italy).

Hes5 = Hes5 protein level in HCT 116 cells by western blot; conditions: 10 μM, 6, 16 and 24 hours
Experimental: as §2, with “Separated proteins were transferred to polyvinylidene difluoride (PVDF) membranes (20V for 30 min) and blocked in TBSIX solution containing 0.1% Tween 20 and 5% non-fat dry milk for 1 hour at room temperature. Immunodetection of specific proteins was carried out by incubation with primary antibody against human Notch1 (1:1000 dilution. Ref. #ab52627, Abcam. Cambridge, UK) and β-actin (1:10.000 dilution. Ref. #A5316, Sigma-Aldrich. St. Louis, Mo., USA) overnight at 4° C.” left out, “Germany). […]” for “Germany).”

Notch1 [3] = experiment: Notch1 expression in colonospheres by western blot; conditions: colonospheres after 7 days of treatment, 1 and 5 μM, western blot normalized to Actin
Experimental: as §2, with “Separated proteins were transferred to polyvinylidene difluoride (PVDF) membranes (20V for 30 min) and blocked in TBSIX solution containing 0.1% Tween 20 and 5% non-fat dry milk for 1 hour at room temperature. Immunodetection of specific proteins was carried out by incubation with primary antibody against human Notch1 (1:1000 dilution. Ref. #ab52627, Abcam. Cambridge, UK) and β-actin (1:10.000 dilution. Ref. #A5316, Sigma-Aldrich. St. Louis, Mo., USA) overnight at 4° C.” left out
The densitometry analysis was performed using ImageJ software, and the quantified band intensities were normalized to Actin. […]

Notch1 [4] = experiment: Notch1 expression in PC3 cancer cell line; conditions: PC3 (Prostate)
Experimental: (§3) The effect of CBGV on Notch1 expression levels was evaluated in a panel of cancer cell lines. Human colorectal carcinoma Hct116 (No. CCL-247), human colorectal adenocarcinoma HT-29 (No. HTB-38), human brain neuroblastoma SK—N—SH (No. HTB-11), human breast adenocarcinoma MDA-MB-231 (No. HTB-26), human prostate adenocarcinoma PC3 (No. CRL-1435), human prostate carcinoma DU-145 (No. HTB-81), human lung carcinoma A549 (No. CCL-185) and human lung carcinoma H1299 (No. CRL-5803) cell lines were obtained from the American Type Culture Collection (ATCC, USA).

Notch1 [5] = experiment: Notch1 expression in SK-N-SH cancer cell line; conditions: SK-N-SH (Brain)
Experimental: as §3

Notch1 [6] = experiment: Notch1 expression in HT-29 cancer cell line; conditions: HT-29 (Colon)
Experimental: as §3

Notch1 [7] = experiment: Notch1 expression in A549 cancer cell line; conditions: A549 (Lung)
Experimental: as §3

Notch1 [8] = experiment: Notch1 expression in MDA-MB-231 cancer cell line; conditions: MDA-MB-231 (Breast)
Experimental: as §3

Notch1 [9] = experiment: Notch1 expression in Hct116 cancer cell line; conditions: Hct116 (Colon)
Experimental: as §3

Notch1 [10] = experiment: Notch1 expression in DU145 cancer cell line; conditions: DU145 (Prostate)
Experimental: as §3

Notch1 [11] = experiment: Notch1 expression in H1299 cancer cell line; conditions: H1299 (Lung)
Experimental: as §3

Compound	Notch1 degradation through the proteasome (Notch1 [1])	colonospheres formation (HCT 116 cells)	Notch1 protein levels in HCT 116 cells (dose and time dependence) (Notch1 [2]; 1, 2.5, 5 and 10 μM for 24 hours, 10 μM at 6, 16 and 24 hours)	Notch1 levels, panel of natural cannabinoids (Notch1 [2])	Hes5 expression levels (Hes5)	Notch1 levels in colonospheres (Notch1 [3])	Notch1 expression levels, concentration dependence (Notch1 [2])	Inhibition of Notch1 expression in cancer cells (Notch1 [4])	Inhibition of Notch1 expression in cancer cells (Notch1 [5])	Inhibition of Notch1 expression in cancer cells (Notch1 [6])	Inhibition of Notch1 expression in cancer cells (Notch1 [7])	Inhibition of Notch1 expression in cancer cells (Notch1 [8])	Inhibition of Notch1 expression in cancer cells (Notch1 [9])	Inhibition of Notch1 expression in cancer cells (Notch1 [10])	Inhibition of Notch1 expression in cancer cells (Notch1 [11])
C=C(C)[C@@H]1CCC(C)=C[C@H]1c1c(O)cc(CCCCC)cc1O [CBD, cannabidiol]	induces Notch1 degradation by the proteasomal degradation machinery; also recorded: induces Notch1 degradation through the proteasome	significantly reduces the colonospheres formation in a clear dose-dependent manner	reduces Notch1 protein levels in HCT 166 cells in a dose- and time-dependent manner; also recorded: reduces Notch1 expression levels in colonospheres and HCT 116 cells	clearly diminished Notch1 levels; also recorded: reduce Notch1 expression levels	clearly reduces Hes5 expression levels in HCT 116 cells in a time-dependent manner; also recorded: reduces the expression of Hes5	clearly diminished in a dose-dependent manner; also recorded: reduces Notch1 expression levels in colonospheres	–	–	–	–	–	–	–	–	–
C=C(C)[C@@H]1CCC(C)=C[C@H]1c1c(O)cc(CCC)cc1O [CBDV, cannabidivarin]	–	potent dose-dependent anti-proliferative effect of colonospheres formation; also recorded: inhibit colonospheres formation	–	clearly diminished Notch1 levels; also recorded: reduce Notch1 expression levels	–	–	reduce Notch1 expression levels in a concentration-dependent manner	–	–	–	–	–	–	–	–
CCCc1cc(O)c(C/C=C(\C)CCC=C(C)C)c(O)c1 [CBGV, cannabigerovarin]	–	potent dose-dependent anti-proliferative effect of colonospheres formation; also recorded: inhibit colonospheres formation	–	clearly diminished Notch1 levels; also recorded: reduce Notch1 expression levels	–	–	reduce Notch1 expression levels in a concentration-dependent manner	Yes	Yes	Yes	Yes	Yes	Yes	Yes	Yes
